Results taken from PMC4060151 (Chemistry & biology, 2014).

Experiments:
[1] = test system: stationary M. tuberculosis mc^26020; experiment: Time-dependent killing, stationary cells; type: cell-based; conditions: 10 ×MIC; average of three biological replicates (Fig. 3B)
[2] = test system: cell wall biosynthesis; conditions: ref Iwatsuki et al., 2006; cited from earlier work
[3] = test system: ClpC1; conditions: cited from earlier work

CO[C@H]1/C=C/O[C@@]2(C)Oc3c(C)c(O)c4c(O)c(c(/C=N/N5CCN(C)CC5)c(O)c4c3C2=O)NC(=O)/C(C)=C\C=C\[C@H](C)[C@H](O)[C@@H](C)[C@@H](O)[C@@H](C)[C@H](OC(C)=O)[C@@H]1C [rifampicin]
killing of stationary phase cells [1]: characteristic biphasic killing (Fig. 3B) and a significant number of persister cells survive exposure

Lariatin A
mechanism of action [2]: inhibits cell wall biosynthesis

cyclomarin A
binding to ClpC1 [3]: binds to ClpC1 | effect on proteolysis [3]: proposed to cause excessive proteolysis
